In paper PMC10487961, “Antiplatelet Effects of Selected Xanthine-Based Adenosine A2A and A2B Receptor Antagonists Determined in Rat Blood” (International Journal of Molecular Sciences, 2023):
Like-named read-outs stand apart in the source and are kept apart here.

Tests used:
[1] = target: hA2BR; settings: human A2B receptor; read-out: Ki ± SEM hA2BR vs. [3H]PSB-603; cited from earlier work
[2] = target: T1, human recombinant PDE3A (Homo sapiens, UniProt Q14432); assay: PDE-Glo activity inhibition test, PDE3A; assay type: biochemical; settings: for IC50: human recombinant PDE3A, cAMP substrate, read-out: IC50 (CV%) PDE3A
T1 construct: purchased SignalChem

[3] = target: hA2AR; settings: cited from earlier work
[4] = target: hA3R; settings: human A3 receptor; read-out: Ki ± SEM hA3R vs. [3H]PSB-11; cited from earlier work
[5] = target: T2, human recombinant PDE5A (Homo sapiens, UniProt O76074); assay: PDE-Glo activity inhibition test, PDE5A; assay type: biochemical; settings: cGMP substrate, read-out: IC50 (CV%) PDE5A
T2 construct: purchased SignalChem

[6] = tested on: platelet aggregation in whole rat blood induced with collagen; assay: In vitro whole rat blood aggregation induced with collagen (Multiplate impedance aggregometry); assay type: cell-based; settings: for Effect on collagen-induced platelet aggregation (in words): screened at 10 µM and 100 µM, whole rat blood (Figure 1); for Effect on collagen-induced platelet aggregation (in words) / Reduction of collagen-induced platelet aggregation: collagen 1.6 µg/mL; for IC50: Collagen [1.6 µg/mL], concentration inhibiting aggregation of whole rat blood in vitro by 50%; for Reduction of collagen-induced platelet aggregation: 100 µM compound, whole rat blood, screening (Figure 1)
Protocol: (§1) To evaluate antiplatelet activities of the test compounds, freshly isolated rat whole blood was incubated with compound or vehicle, and the aggregation responses were assessed with a whole blood aggregometer by measuring impedance changes. Platelet aggregation was induced with collagen. First, compounds were screened for anti-aggregation effects at concentration of 10 µM and 100 µM (Figure 1). […] In vitro aggregation tests were conducted using freshly collected whole rat blood with a Multiplate platelet function analyzer (Roche Diagnostic, Mannheim, Germany), the five-channel aggregometer based on measurements of electric impedance, according to previous procedures. Upon activation, platelets adhere and progressively aggregate on a duplicate metal sensor in the analyzer test cuvette. This leads to a change in resistance, which is proportional to the number of platelets adhering to the electrodes. Blood was drawn from the carotid of rats with hirudin blood tubes (S-Monovette, Hirudin, Sarstedt, Germany). Then, 300 μL of hirudin anticoagulated blood was mixed with 300 μL prewarmed isotonic saline solution containing the studied compound or vehicle (DMSO 0.1%) and preincubated for 3 min at 37 °C with continuous stirring. The agonists (collagen, ADP) were diluted using deionized water. Aggregation was induced by adding collagen (final concentration 1.6 µg/mL) or ADP (final concentration 6.5 µM). […] Activated platelet function was recorded for 6 min. Multiplate software v. V2.05 was used to analyze the area under the curve (AUC) of the clotting process for each measurement and calculate the mean values.

[7] = target: hA1R; settings: human A1 receptor; read-out: Ki ± SEM hA1R vs. [3H]CCPA; cited from earlier work
[8] = target: T3, human recombinant PDE2A (Homo sapiens, UniProt O00408); assay: PDE-Glo activity inhibition test, PDE2A; assay type: biochemical; settings: cGMP substrate, read-out: IC50 (CV%) PDE2A
T3 construct: purchased SignalChem

[9] = tested on: lipid peroxidation in rat brain homogenate; assay: In vitro lipid peroxidation (MDA/TBARS test)
Protocol: The lipid peroxidation was measured by the formation of thiobarbituric acid reactive substances (TBARS) in rat brain homogenate, which was made in 0.9% NaCl containing 10 mg tissue per mL [60]. Briefly, rat brain homogenates (1 mL) were incubated at 37 °C for 5 min with 10 µL of a test compound or vehicle. Lipid peroxidation was initiated with the addition of 50 µL of 0.5 mmol/L FeCl2 and 50 µL of 2 mmol/L ascorbic acid. After 30 min of incubation, the reaction was stopped by adding 0.1 mL of 0.2% butylhydroxytoluene. Thiobarbituric acid reagent was then added, and the mixture was heated for 15 min in a boiling water bath. The TBARS was extracted using n-butanol and measured at 532 nm. The amount of TBARS was quantified using a standard curve of malondialdehyde (1,1,3,3-tetraethoxypropane was used as standard).
The compound used to compare the results was carvedilol. Its activity was tested in the concentration range of 10–3000 μM (Figure 8). The reference was the maximum activity of carvedilol at the highest concentration (100%). Test compounds were assayed at concentrations of 100 and 1000 µM. The obtained results were then compared to the activity of the reference compound at identical concentrations (1000 µM).

[10] = tested on: platelet aggregation in whole rat blood induced by ADP; assay: In vitro whole rat blood aggregation induced with ADP (Multiplate impedance aggregometry); assay type: cell-based; settings: ADP [6.5 μM], concentration inhibiting aggregation of whole rat blood in vitro by 50%
Protocol: as §1, with “In further experiments,” for “To evaluate antiplatelet activities of the test compounds, freshly isolated rat whole blood was incubated with compound or vehicle, and the aggregation responses were assessed with a whole blood aggregometer by measuring impedance changes. Platelet”, “ADP. In this model of aggregation, we tested the selected” for “collagen. First,”, “as well as IBMX as a positive control.” for “were screened for anti-aggregation effects at concentration of 10 µM and 100 µM (Figure 1).”

[11] = target: T3, human recombinant PDE2A; parameters: method as in PMID 31705904; settings: cited from earlier work
[12] = target: T2, human recombinant PDE5A; parameters: method as in PMID 31705904; settings: cited from earlier work

T1 sequence (Q14432 whole entry): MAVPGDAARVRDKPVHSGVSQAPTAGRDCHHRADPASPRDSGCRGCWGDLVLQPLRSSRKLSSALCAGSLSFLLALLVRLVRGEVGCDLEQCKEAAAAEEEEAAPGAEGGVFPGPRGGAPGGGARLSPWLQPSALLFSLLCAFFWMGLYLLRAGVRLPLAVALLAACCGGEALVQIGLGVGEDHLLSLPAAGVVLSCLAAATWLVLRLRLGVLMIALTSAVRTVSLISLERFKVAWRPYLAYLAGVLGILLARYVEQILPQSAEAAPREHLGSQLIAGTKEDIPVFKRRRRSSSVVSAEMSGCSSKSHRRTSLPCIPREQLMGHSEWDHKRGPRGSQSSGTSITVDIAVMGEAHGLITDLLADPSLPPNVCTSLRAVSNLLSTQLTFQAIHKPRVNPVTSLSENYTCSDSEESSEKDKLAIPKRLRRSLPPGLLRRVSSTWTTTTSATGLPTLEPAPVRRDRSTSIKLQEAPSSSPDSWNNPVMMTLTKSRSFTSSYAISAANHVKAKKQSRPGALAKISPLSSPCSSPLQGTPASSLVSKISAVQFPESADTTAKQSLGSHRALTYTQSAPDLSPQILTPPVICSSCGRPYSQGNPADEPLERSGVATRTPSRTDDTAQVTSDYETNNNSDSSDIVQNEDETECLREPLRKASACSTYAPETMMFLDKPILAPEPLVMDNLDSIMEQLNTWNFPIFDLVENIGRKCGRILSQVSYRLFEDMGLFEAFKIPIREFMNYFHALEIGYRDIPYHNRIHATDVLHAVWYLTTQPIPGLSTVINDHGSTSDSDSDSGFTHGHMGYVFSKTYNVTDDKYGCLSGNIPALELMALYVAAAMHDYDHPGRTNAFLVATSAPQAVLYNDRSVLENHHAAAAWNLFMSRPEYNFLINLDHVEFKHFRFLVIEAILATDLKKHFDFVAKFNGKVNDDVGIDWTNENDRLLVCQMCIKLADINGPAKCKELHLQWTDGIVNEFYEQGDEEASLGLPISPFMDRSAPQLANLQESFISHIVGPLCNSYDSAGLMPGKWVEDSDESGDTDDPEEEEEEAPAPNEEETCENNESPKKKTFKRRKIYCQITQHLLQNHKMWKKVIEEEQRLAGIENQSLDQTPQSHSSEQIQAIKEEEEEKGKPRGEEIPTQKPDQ
T3 sequence (O00408 whole entry): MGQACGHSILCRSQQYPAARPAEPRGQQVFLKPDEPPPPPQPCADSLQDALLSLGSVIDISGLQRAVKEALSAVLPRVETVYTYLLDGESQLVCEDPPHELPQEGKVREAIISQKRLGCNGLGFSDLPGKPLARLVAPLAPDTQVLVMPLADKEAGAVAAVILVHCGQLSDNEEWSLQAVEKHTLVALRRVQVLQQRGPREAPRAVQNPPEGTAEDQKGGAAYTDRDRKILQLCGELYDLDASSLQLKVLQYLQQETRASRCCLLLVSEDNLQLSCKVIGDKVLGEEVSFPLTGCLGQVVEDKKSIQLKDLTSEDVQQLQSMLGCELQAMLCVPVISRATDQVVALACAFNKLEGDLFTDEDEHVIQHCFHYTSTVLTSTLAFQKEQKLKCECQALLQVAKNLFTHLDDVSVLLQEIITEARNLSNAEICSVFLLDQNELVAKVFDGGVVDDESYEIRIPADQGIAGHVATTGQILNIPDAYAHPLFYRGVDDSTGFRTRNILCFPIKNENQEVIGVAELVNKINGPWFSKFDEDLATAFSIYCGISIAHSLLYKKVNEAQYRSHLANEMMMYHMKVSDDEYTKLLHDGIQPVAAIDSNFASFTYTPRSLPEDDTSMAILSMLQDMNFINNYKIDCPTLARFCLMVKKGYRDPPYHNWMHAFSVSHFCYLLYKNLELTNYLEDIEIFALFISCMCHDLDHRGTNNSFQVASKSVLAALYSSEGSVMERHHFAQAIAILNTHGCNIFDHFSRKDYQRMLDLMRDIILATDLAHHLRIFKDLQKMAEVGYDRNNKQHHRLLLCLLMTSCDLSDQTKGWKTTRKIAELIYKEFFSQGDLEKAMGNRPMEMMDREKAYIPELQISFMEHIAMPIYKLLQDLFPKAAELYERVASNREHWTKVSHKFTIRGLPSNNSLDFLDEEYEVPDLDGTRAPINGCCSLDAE

Compound | Ki [1] [µM] | IC50 [2] [µM] | Ki [3] [µM] | Ki [4] [µM] | IC50 [5] [µM] | Effect on collagen-induced platelet aggregation (in words) [6] | Ki [7] [µM] | IC50 [8] [µM] | IC50 [10] [µM] | further results
CC1CCC(N2CCCn3c2nc2c3c(=O)n(C)c(=O)n2C)CC1 (stereo not shown) [KD-64, 1,3-dimethyl-9-(4-methylcyclohexyl)-pyrimido [2,1-f] purine-2,4-dione] | > 1 | 10.3 | 0.24 | > 1 | > 100 | did not affect platelet aggregation | > 1 | 27 |  | 
3,7-dimethyl-8-(3-phenylpropoxy)-1-(prop-2-yn-1-yl)--purine-2,6-dione [TB-46] | 0.472 ± 0.174 | 0.58 | 0.0191 ± 0.0023 | > 1 | 68.6 | did not affect platelet aggregation | 0.158 ± 0.012 | 9.85 |  | Antioxidant activity at a concentration 10 times lower (in words) ([9]; concentration 10 times lower than 1000 µM): practically disappeared
CCCCn1c(=O)[nH]c2nc(-c3ccc(S(=O)(=O)N4CCN(c5ccc(Cl)cc5)CC4)cc3)[nH]c2c1=O [PSB-23066, 1-butyl-8-(4-((4-(4-chlorophenyl)piperazin-1-yl)sulfonyl)phenyl)-1H-purine-2,6(3H,7H)-dione] | 0.000401 ± 0.000136 |  | > 1 | > 1 | 45.8 | did not affect platelet aggregation | > 1 |  |  | 
CC(C)Cn1c(=O)n(C)c(=O)c2[nH]cnc21 [IBMX, 1-methyl-3-isobutylxanthine, reference compound] |  |  |  |  |  |  |  |  | 18.5 ± 7.3 | IC50 [11]: 9.22 µM; IC50 [12]: 45.1 µM; IC50 [6]: 98.8 ± 29.8 µM; IC50 ([6]; Rattus norvegicus, Platelet): ~100 µM
COc1ccccc1OCCNCC(O)COc1cccc2[nH]c3ccccc3c12 (stereo not shown) [Carvedilol, carvedilol, reference compound] |  |  |  |  |  |  |  |  |  | EC50 ([9]; carvedilol tested at 10–3000 μM, Figure 8, read-out: EC50 antioxidant action (lipid peroxidation)): 68.8 µM
CCCn1c(=O)[nH]c2nc(-c3ccc(S(=O)(=O)N4CCN(c5ccc(Cl)cc5)CC4)cc3)[nH]c2c1=O [PSB-603, 1-propyl-8-(4-((4-(4-chlorophenyl)piperazin-1-yl)sulfonyl)phenyl)-1H-purine-2,6(3H,7H)-dione] | 0.000553 ± 0.000103 | > 100 | > 1 | > 1 | 39.7 |  | > 1 | 50.1 | 82.9 ± 17 | Effect against PDE3A activity (in words) ([2]; in the concentrations tested): did not display any detectable effects; Reduction of collagen-induced platelet aggregation [6]: 50.4%; Prevention of collagen-induced platelet aggregation ([6]; 100 µM, highest tested concentration, concentration series (Figure 2)): 54.12%; IC50 [6]: 98.6 ± 27 µM; IC50 ([6]; Rattus norvegicus, Platelet): ~100 µM; Effect on platelet activity at lower concentrations (in words) ([6]; concentrations below 100 µM, collagen 1.6 µg/mL (Figure 2)): did not markedly affect platelet activity
O=C1CCc2cc(OCCCCc3nnnn3C3CCCCC3)ccc2N1 [Cilostazol, cilostazol, reference compound] |  | 0.0545 |  |  |  |  |  |  |  | 
CCn1c(=O)c2c(nc(NCc3c(Cl)ccc(OC)c3F)n2C)n(C)c1=O [MZ-1497, 8-((6-chloro-2-fluoro-3-methoxybenzyl)amino)-1-ethyl-3,7-dimethyl-purine-2,6-dione] | > 1 |  | 0.0685 ± 0.0155 | > 1 | > 100 | did not affect platelet aggregation | > 1 |  |  | 
CCCCCC[C@@H]([C@@H](C)O)n1cnc2c(N)ncnc21 (racemic) [EHNA, erythro-9-(2-hydroxy-3-nonyl)adenine, reference compound] |  |  |  |  |  |  |  | 8.22 |  | 
C#CCn1c(=O)c2c(nc(OCc3ccccc3Br)n2C)n(C)c1=O [TB-42] | > 1 |  | 0.059 ± 0.0102 |  | 64.5 |  | 0.357 ± 0.049 |  | 58.6 ± 35.6 | Reduction of collagen-induced platelet aggregation [6]: 56.8%; IC50 ([6]; Platelet): 69.3 ± 0.7 µM
